What was measured:
[1] = Stability in human liver microsome assessed as binding constant at 1 uM in presence of NADPH by LC/MS/MS analysis; conditions: microsomes
[2] = Selectivity index, ratio of CC50 for mock infected human MT4 cells to IC50 for HIV1 IIIB infected human MT4 cells
[3] = Stability in rat liver microsome assessed as binding constant at 1 uM in presence of NADPH by LC/MS/MS analysis; conditions: microsomes
[4] = tested on: Human immunodeficiency virus 1; experiment: Antiviral activity against HIV1 IIIB infected human MT4 cells assessed as protection against virus-induced cytopathic effect by MTT assay; type: functional, organism-based; conditions: Human immunodeficiency virus 1, IIIB
[5] = Cytotoxicity against mock infected human MT4 cells by MTT assay
[6] = Solubility of compound in PBS at pH 4.5 by HPLC-UV analysis; type: physicochemical; conditions: buffer
[7] = Aqueous solubility of compound in PBS at pH 7 by HPLC-UV analysis; conditions: PBS
in vitro [8] = conditions: rat, microsomes
in vitro [9] = conditions: rat, microsomes; remark: listed apart in the source
[10] = Oral bioavailability in Sprague-Dawley rat at 5 mg/kg by LCMS analysis; type: ADME, organism-based; conditions: in vivo
[11] = target: Human immunodeficiency virus type 1 reverse transcriptase (Human immunodeficiency virus 1, UniProt Q72547); experiment: Inhibition of recombinant wild-type HIV1 p66/p51 reverse transcriptase assessed as inhibition of [3H][…] incorporation using poly (rA) as templates incubated for 40 mins by spectrofluorometer
[12] = tested on: Human immunodeficiency virus 1; experiment: Anti-viral activity against HIV1 harboring RT E138K mutant infected […] cells assessed as protection against virus-induced cytopathic effect by MTT assay; type: functional, organism-based; conditions: Human immunodeficiency virus 1, MT4
[13] = tested on: Human immunodeficiency virus 1; experiment: Anti-viral activity against HIV1 harboring RT K103N mutant infected […] cells assessed as protection against virus-induced cytopathic effect by MTT assay; type: functional, organism-based; conditions: Human immunodeficiency virus 1, MT4
[14] = tested on: Human immunodeficiency virus 1; experiment: Anti-viral activity against HIV1 harboring RT L100I mutant infected […] cells assessed as protection against virus-induced cytopathic effect by MTT assay; type: functional, organism-based; conditions: Human immunodeficiency virus 1, MT4
[15] = tested on: Human immunodeficiency virus 1; experiment: Anti-viral activity against HIV1 harboring RT Y181C mutant infected […] cells assessed as protection against virus-induced cytopathic effect by MTT assay; type: functional, organism-based; conditions: Human immunodeficiency virus 1, MT4
[16] = tested on: Human immunodeficiency virus 1; experiment: Anti-viral activity against HIV1 harboring RT Y188L mutant infected […] cells assessed as protection against virus-induced cytopathic effect by MTT assay; type: functional, organism-based; conditions: Human immunodeficiency virus 1, MT4

K [1] [min⁻¹]	K [3] [min⁻¹]	solubility [6]	solubility [7] [µg/mL]	microsomal CLint at 1 µM (in vitro [8]) [µL/min/mg]	half-life at 1 µM (in vitro [9]) [min]	bioavailability [10] [%]	Compound	selectivity ratio [2]	EC50 [4] [nM]	CC50 [5] [nM]	IC50 [11] [nM]	EC50 [12] [nM]	EC50 [13] [nM]	EC50 [14] [nM]	EC50 [15] [nM]	EC50 [16] [nM]
0.047	0.045						Cc1cc(-c2ccc(C#N)cc2)cc(C)c1Nc1ccnc(Nc2ccc(C#N)cc2)n1	2080	1	2100						
		Insoluble					O=c1c2nc([N+](=O)[O-])cn2ccn1Cc1ccccc1									
			5.6				Cl.N#Cc1ccc(Nc2nccc(Nc3c(F)cc(-c4ccc(C#N)cc4)cc3F)n2)cc1									
0.0219	0.0157			15.7	44.3	44	N#Cc1ccc(Nc2nccc(Nc3c(F)cc(-c4ccc(C#N)cc4)cc3F)n2)cc1		1	> 294000						
							N#Cc1ccc(Nc2nccc(Nc3c(F)cc(-c4cncnc4)cc3F)n2)cc1	229	11.9	2700	87	137	326	1790		
							N#Cc1ccc(Nc2nccc(Nc3c(F)cc(-c4cccnc4)cc3F)n2)cc1	32700	7.4	242000	58	149	223	583	473	
							N#Cc1ccc(Nc2nccc(Nc3c(F)cc(-c4cc(F)nc(F)c4)cc3F)n2)cc1	1970	5.6	11000	13	57	199	898	476	
							N#Cc1ccc(Nc2nccc(Nc3c(F)cc(-c4ccnc(F)c4F)cc3F)n2)cc1	> 147000	2	> 286000	8.3	13.5	11.5	63	21.3	1640
							COc1cc(-c2cc(F)c(Nc3ccnc(Nc4ccc(C#N)cc4)n3)c(F)c2)ccn1	501	13	6700	30	260	239	645	389	
							N#Cc1ccc(Nc2nccc(Nc3c(F)cc(-c4ccncc4)cc3F)n2)cc1				7.4	4	8	20.4	15	417
							Cc1cc(-c2cc(F)c(Nc3ccnc(Nc4ccc(C#N)cc4)n3)c(F)c2)ccn1	777	4.1	3200	29	52	77.7	383	144	1090
							N#Cc1ccc(Nc2nccc(Nc3c(F)cc(-c4csc5ccccc45)cc3F)n2)cc1	132	124	16000	59	601	5790	6450	6210	7480
							N#Cc1ccc(Nc2nccc(Nc3c(F)cc(-c4ccc(N)cc4)cc3F)n2)cc1	> 32900	9.2	> 303000	37	37	144	561	482	1180
							N#Cc1ccc(Nc2nccc(Nc3c(F)cc(-c4ccsc4)cc3F)n2)cc1	14000	3.9	55400	11	14	171	301	212	1040
							N#Cc1ccc(Nc2nccc(Nc3c(F)cc(-c4ccco4)cc3F)n2)cc1	7910	2.1	16600	10	10	71	86	84	2170
							N#Cc1ccc(Nc2nccc(Nc3c(F)cc(-c4ccnc(-c5ccnc(Cl)c5)c4)cc3F)n2)cc1	3070	16.8	51000	110	160	176	1150	779	
							N#Cc1ccc(Nc2nccc(Nc3c(F)cc(-c4cn[nH]c4)cc3F)n2)cc1	298	10	3100	43	101	251			

Source: ChEMBL document CHEMBL5032511, “Improving Druggability of Novel Diarylpyrimidine NNRTIs by a Fragment-Based Replacement Strategy: From Biphenyl-DAPYs to Heteroaromatic-Biphenyl-DAPYs” (J Med Chem, 2021)
